# What was measured:
# PDE-4 = details: cited from earlier work
# TNFα release = assay: LPS-induced TNFα release in diluted human blood (ELISA); assay type: cell-based; details: LPS 1 μg/ml, human blood diluted 1:5, 24 h; read-out: IC50 value in the TNFα inhibitory assay
# Text: Isolated leukocytes can be stimulated for the release of cytokines in different ways. Lipopolysaccharides (LPS) are a stimulus for the investigation of the TNFα release. LPS is part of bacterial cell walls and is released when the bacteria are killed (by antibiotics or the natural immune system). LPS stimulates in particular the activity of phagocytizing leukocytes (tissue macrophages, granulocytes, monocytes) and causes the infiltration of leukocytes from the peripheral blood into the affected tissue. A cytokine of special significance for these mechanisms is TNFα which is secreted in large amounts by the affected cells. The main source are here monocytes and macrophages. TNFα initiates and prolongs the inflammatory process in cooperation with other mediators.
# For the investigation of the effect on the LPS-induced TNFα release a method was used which was described by Marx, D., Tassabehji, M., Heer, S., Hüttenbrink, K.-B., and I. Szelenyi, Pulmonary Pharmacology & Therapeutics (2002) 15, 7-15. The method is briefly: Human blood was taken from various donors, rendered incoagulable by the addition of 10 mM Na citrate and diluted 1:5 with RPMI 1640 cell culture medium. The test substances were added to the blood samples at various concentrations. 15 min later, the leukocytes were stimulated by the addition of lipopolysaccharides (LPS) from Salmonella abortus equi at a final concentration of 1 μg/ml. After the incubation of the test batches at 37° C. and under 5% CO2 in a water-saturated air for 24 h, the blood was centrifuged and the TNFα concentration in the cell-free supernatant was accurately measured using a purchasable ELISA (BD Biosciences) according to the manufacturer's instructions.
# [1] = system: murine neuroblastoma cell line N2a; assay: Induction of axon growth in N2a cells; assay type: cell-based; details: 1 μM in the test batch, after 72 h, listed as 7-(3,4-dimethoxyphenyl)-4-ethoxy-9-methyl-2-piperazin-1-yl-pyrido[3′,2′:4,5]-thi
# Text: The inventors have tested some PDE4 inhibitors according to the invention for induction of axon growth with the murine neuroblastoma cell line N2a. It turned out that in particular the substances 4-ethoxy-9-ethyl-7-(3,4-methylenedioxyphenyl)-2-piperazin-1-yl-pyrido[3′,2′:4,5]thieno[3,2-d]-pyrimidine and 7-(3,4-dimethoxyphenyl)-4-ethoxy-9-methyl-2-piperazin-1-yl-pyrido[3′,2′:4,5]thieno[3,2-d]pyrimidine hydrochloride were able to induce the growth of long processes (“axons”) having a length of up to […] at concentrations of 1 μM in the test batch after 72 h (FIGS. 1a and 1b).
# CLL cells = assay: Cytotoxicity on CLL cells, formazan reduction assay (MTT test); details: 1 μM, 24 h incubation of the patient's blood, primary CLL
# Procedure: The positive control used was fludarabine which is employed for CLL as a standard chemotherapeutic agent.
# The cytotoxicity of the CLL cells was determined by means of a commercially available formazan reduction assay (MTT test) after 24 h of incubation of the patient's blood with the active substances.
smiles,measurement,setting,value
O=C(Nc1c(Cl)cncc1Cl)c1ccc(OC(F)F)c(OCC2CC2)c1 [roflumilast],IC50,PDE-4,0.8 nM
"CCOc1nc(N2CCNCC2)nc2c1sc1nc(-c3ccc(OC)c(OC)c3)cc(C)c12.Cl [4-Ethoxy-7-(3,4-dimethoxy-phenyl)-9-methyl-2-(piperazin-1-yl)-pyrido[3′,2′:4,5]thieno[3,2-d]pyrimidine-hydrochloride]",IC50,TNFα release,< 2000 nM
same,length of induced long processes (axons),[1],≤ 300 µm
Nc1nc(F)nc2c1ncn2[C@@H]1O[C@H](CO)[C@@H](O)[C@@H]1O [fludarabine],"cytotoxicity, share of the cells",CLL cells,≤ 60%
